Data as given in patent publication US20230111914A1, “SYNTHETIC TRITERPENOIDS WITH NITROGEN-BASED SUBSTITUENTS AT C-17 AND METHODS OF USE THEREOF” (REATA PHARMACEUTICALS, INC., priority 2019, published 2023).
Values joined by “and” are separate entries in the source; they are usually repeats but may differ in a detail not shown here. Equal values may be shown once. Marks after values point to notes of the source that are not given here.

Key:
[1] = tested on: IFNγ-induced NO production in RAW 264.7 cells; assay: Nitric oxide suppression assay (IFNγ-induced NO production, Griess nitrite readout); format: cell-based, mouse; conditions: for IC50: Mus musculus, RAW264.7, RAW 264.7 cells, 2 h pretreatment, 20 ng/mL interferon gamma 24 h, average of trials per footnote, read-out: NO IC50
[2] = tested on: AREc32 reporter cell line (luciferase reporter under eight copies of the rat GSTA2 ARE sequence); assay: AREc32 luciferase reporter activation; format: cell-based, human; conditions: for EC (2-fold): Homo sapiens, Arec32, concentration that increases the luminescence signal 2-fold above vehicle, 19 h treatment, read-out: AREc32 EC2X (Mean ± SD); for AREc32 Relative to CC in Same Experiment (Mean ± SD): average of ratios from three replicate experiments
[3] = molecular target: T1, CYP3A4 (Homo sapiens, UniProt P08684); assay: CYP3A4 (midazolam) inhibition in human liver microsomes; format: in vitro ADME; conditions: probe midazolam; human liver microsomes 0.1 mg/mL, midazolam substrate, 1 μM test compound, 37° C. 10 min
T1 construct: containing 0.1 mg/mL human liver microsomes; from tissue; host or cells: human liver microsomes
Method: Methods. Several compounds were evaluated for CYP3A4 (midazolam) inhibition in human liver microsomes at 1 μM. CYP3A4 inhibition was tested using an in vitro assay as generally described in Dierks et al. (Drug Metabolism Deposition, 29:23-29, 2001, which is incorporated by reference herein). Each sample, containing 0.1 mg/mL human liver microsomes, […] as substrate, and 1 μM of test compound, was incubated at 37° C. for 10 min. Following incubation, the metabolite 1-hydroxymidazolam was measured using HPLC-MS/MS. Peak areas corresponding to the metabolite of the substrate were recorded. The percent of control activity was then calculated by comparing the peak area obtained in the presence of the test compound to that obtained in the absence of the test compound. Subsequently, the percent inhibition was calculated by subtracting the percent control activity from 100 for each compound.

T1 sequence (P08684 whole entry): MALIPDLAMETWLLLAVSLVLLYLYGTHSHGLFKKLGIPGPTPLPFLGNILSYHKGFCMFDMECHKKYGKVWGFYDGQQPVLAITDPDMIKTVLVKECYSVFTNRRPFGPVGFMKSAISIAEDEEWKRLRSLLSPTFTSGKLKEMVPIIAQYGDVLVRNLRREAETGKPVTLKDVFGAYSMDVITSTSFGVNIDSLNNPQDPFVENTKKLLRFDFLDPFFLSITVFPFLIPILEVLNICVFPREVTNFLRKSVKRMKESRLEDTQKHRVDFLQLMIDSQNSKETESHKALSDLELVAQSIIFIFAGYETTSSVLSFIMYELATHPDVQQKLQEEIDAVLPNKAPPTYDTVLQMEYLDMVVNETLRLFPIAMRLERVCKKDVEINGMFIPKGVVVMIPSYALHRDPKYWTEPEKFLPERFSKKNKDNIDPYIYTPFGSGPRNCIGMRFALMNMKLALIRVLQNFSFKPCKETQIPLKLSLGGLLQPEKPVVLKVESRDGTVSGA

Row | SMILES | NO IC50 Rel. to RTA 402 [1] | IC50 [1] [nM] | AREc32 EC2X Relative to RTA 402 (Mean ± SD) [2] | EC (2-fold) [2] [µM] | AREc32 Relative to CC in Same Experiment (Mean ± SD) ([2]; comparison compound CC2) | inhibition at 10 min, 1 µM [3] [%] | times more active (NO IC50) than CC4 relative to RTA 402 [1] | AREc32 Relative to CC in Same Experiment (Mean ± SD) ([2]; comparison compound CC4) | times more active (NO IC50) than 63229 relative to RTA 402 [1]
1 | CC1(C)CC[C@]2(Cn3cncn3)CC[C@]3(C)[C@H](C(=O)C=C4[C@@]5(C)C=C(C#N)C(=O)C(C)(C)[C@@H]5CC[C@]43C)[C@@H]2C1 [Compound T21] | 0.57 ± 0.07^e fold | 1.18 ± 0.21 | 1.1 ± 0.20^g fold | 0.0105 ± 0.00165 | 0.649 ± 0.070 | 18.9 | – | – | –
2 | CC1(C)CC[C@]2(CN3CCCC3=O)CC[C@]3(C)[C@H](C(=O)C=C4[C@@]5(C)C=C(C#N)C(=O)C(C)(C)[C@@H]5CC[C@]43C)[C@@H]2C1 [Compound T11] | 0.58 ± 0.18^f fold | 1.08 ± 0.44 | 0.5 ± 0.08^d fold | 0.0067 ± 0.0017 | – | 12.5 | – | – | –
3 | CC1(C)CC[C@]2(n3ccnn3)CC[C@]3(C)[C@H](C(=O)C=C4[C@@]5(C)C=C(C#N)C(=O)C(C)(C)[C@@H]5CC[C@]43C)[C@@H]2C1 [Compound T35] | 0.64 fold and 0.64 ± 0.04^e fold | 1.3 | 0.6 ± 0.18^f fold | 0.0071 ± 0.00073 | – | 41.7 | ~4 times | 0.262 ± 0.020 | –
4 | CC1(C)CC[C@]2(Cn3cccn3)CC[C@]3(C)[C@H](C(=O)C=C4[C@@]5(C)C=C(C#N)C(=O)C(C)(C)[C@@H]5CC[C@]43C)[C@@H]2C1 [Compound T20] | 1.93 ± 0.41^e fold | 3.28 ± 0.32 | – | 0.0153 ± 0.00084 | 0.954 ± 0.101 | 13.2 | – | – | –
5 | CC1(C)CC[C@]2(n3cnnn3)CC[C@]3(C)[C@H](C(=O)C=C4[C@@]5(C)C=C(C#N)C(=O)C(C)(C)[C@@H]5CC[C@]43C)[C@@H]2C1 [Compound T36] | 0.77 fold and 0.77 ± 0.16^e fold | 1.96 | 0.5 ± 0.13^f fold | 0.0056 ± 0.00059 | – | 52.8 | roughly 3.1 times | 0.191 ± 0.009 | greater than 98.5 times
6 | CC1(C)CC[C@]2(n3cncn3)CC[C@]3(C)[C@H](C(=O)C=C4[C@@]5(C)C=C(C#N)C(=O)C(C)(C)[C@@H]5CC[C@]43C)[C@@H]2C1 [Compound T33] | 1.35 ± 0.26^d fold | 5.62 ± 1.81 | 1.2 ± 0.18^f fold | 0.0136 ± 0.00131 | – | 49 | – | 0.484 ± 0.060 | –
7 | CC1(C)CC[C@]2(n3cc(CF)nn3)CC[C@]3(C)[C@H](C(=O)C=C4[C@@]5(C)C=C(C#N)C(=O)C(C)(C)[C@@H]5CC[C@]43C)[C@@H]2C1 [Compound T43] | 0.66 fold and 0.66 ± 0.09^d fold | 2.68 | 0.7 ± 0.15^f fold | 0.0085 ± 0.00055 | – | 17 | roughly 3.7 times | 0.299 ± 0.015 | –
8 | CC1(C)CC[C@]2(Cn3ccnc3)CC[C@]3(C)[C@H](C(=O)C=C4[C@@]5(C)C=C(C#N)C(=O)C(C)(C)[C@@H]5CC[C@]43C)[C@@H]2C1 [Compound T17] | – | – | 1.6 ± 0.22^g fold | 0.0162 ± 0.00085 | 1.009 ± 0.052 | 31.8 | – | – | –
9 | CC1(C)CC[C@]2(CN3CCC3)CC[C@]3(C)[C@H](C(=O)C=C4[C@@]5(C)C=C(C#N)C(=O)C(C)(C)[C@@H]5CC[C@]43C)[C@@H]2C1 [Compound T25] | 1.21 ± 0.45^e fold | 2.5 ± 0.92 | 1.5^e fold | 0.022 | – | – | – | – | –
